According to ChEMBL document CHEMBL1153480, “Study on the potential anti-cancer activity of phosphonium and ammonium-based ionic liquids” (2009):

Key:
Type in all cases: functional
M14 = experiment: Cytotoxicity against human M14 cells by SRB assay; settings: read-out: LC50 (the source's name)
HT-29 = experiment: cells; settings: Homo sapiens
Description: Growth inhibition of human HT-29 cells assessed as drug level required for 50% reduction in net protein increase by SRB assay relative to control

SF-268 [1] = experiment: cells; settings: Homo sapiens
Description: Growth inhibition of human SF268 cells assessed as drug level required for 50% reduction in net protein increase by SRB assay relative to control

SF-539 = experiment: cells; settings: Homo sapiens
Description: Growth inhibition of human SF539 cells assessed as cell growth at 10 uM by SRB assay

MDA-MB-468 [2] = experiment: cells; settings: Homo sapiens
Description: Growth inhibition of human MDA-MB-468 cells assessed as cell growth at 10 uM by SRB assay

cells [3] = settings: Homo sapiens, CAKI
Description: Growth inhibition of human CAKI cells assessed as drug level required for 50% reduction in net protein increase by SRB assay relative to control

UACC-62 = experiment: cells; settings: Homo sapiens
Description: Growth inhibition of human UACC62 cells assessed as cell growth at 10 uM by SRB assay

SF-295 = experiment: cells; settings: Homo sapiens
Description: Growth inhibition of human SF295 cells assessed as drug level required for 50% reduction in net protein increase by SRB assay relative to control

TK-10 = experiment: cells; settings: Homo sapiens
Description: Growth inhibition of human TK10 cells assessed as cell growth at 10 uM by SRB assay

RXF 393 [4] = experiment: Cytotoxicity against human RFX393 cells by SRB assay; settings: read-out: LC50 (the source's name)
KM12 [5] = experiment: Cytotoxicity against human KM12 cells by SRB assay; settings: read-out: LC50 (the source's name)
SF-268 [6] = experiment: Cytotoxicity against human SF268 cells by SRB assay; settings: read-out: LC50 (the source's name)
K562 = experiment: Cytotoxicity against human K562 cells by SRB assay; settings: read-out: LC50 (the source's name)
SK-MEL-2 [7] = experiment: Cytotoxicity against human SK-MEL-2 cells by SRB assay; settings: read-out: LC50 (the source's name)
HCC 2998 [8] = experiment: cells; settings: Homo sapiens
Description: Growth inhibition of human HCC2998 cells assessed as cell growth at 10 uM by SRB assay

SK-MEL-28 = experiment: cells; settings: Homo sapiens
Description: Growth inhibition of human SK-MEL-28 cells assessed as drug level required for 50% reduction in net protein increase by SRB assay relative to control

HOP-62 [9] = experiment: cells; settings: Homo sapiens
Description: Growth inhibition of human HOP62 cells assessed as drug level required for 50% reduction in net protein increase by SRB assay relative to control

SW-620 = experiment: Cytotoxicity against human SW620 cells by SRB assay; settings: read-out: LC50 (the source's name)
DU-145 [10] = experiment: cells; settings: Homo sapiens
Description: Growth inhibition of human DU145 cells assessed as cell growth at 10 uM by SRB assay

cells [11] = settings: Homo sapiens, Hs-578T
Description: Growth inhibition of human Hs 578T cells assessed as drug level required for 50% reduction in net protein increase by SRB assay relative to control

OVCAR-4 = experiment: cells; settings: Homo sapiens
Description: Growth inhibition of human OVCAR4 cells assessed as drug level required for 50% reduction in net protein increase by SRB assay relative to control

ACHN = experiment: cells; settings: Homo sapiens
Description: Growth inhibition of human ACHN cells assessed as cell growth at 10 uM by SRB assay

T47D [12] = experiment: cells; settings: Homo sapiens
Description: Growth inhibition of human T47D cells assessed as drug level required for 50% reduction in net protein increase by SRB assay relative to control

HCT-15 = experiment: cells; settings: Homo sapiens
Description: Growth inhibition of human HCT15 cells assessed as cell growth at 10 uM by SRB assay

A549 [13] = experiment: Cytotoxicity against human A549 cells by SRB assay; settings: read-out: LC50 (the source's name)
SK-OV-3 = experiment: Cytotoxicity against human SKOV3 cells by SRB assay; settings: read-out: LC50 (the source's name)
RXF 393 [14] = experiment: cells; settings: Homo sapiens
Description: Growth inhibition of human RFX393 cells assessed as cell growth at 10 uM by SRB assay

[15] = Cytotoxicity against human CAKI cells by SRB assay; settings: read-out: LC50 (the source's name)
Malme-3M [16] = experiment: cells; settings: Homo sapiens
Description: Growth inhibition of human MALME-3M cells assessed as cell growth at 10 uM by SRB assay

EKVX = experiment: cells; settings: Homo sapiens
Description: Growth inhibition of human EKVX cells assessed as drug level required for 50% reduction in net protein increase by SRB assay relative to control

HOP-92 = experiment: cells; settings: Homo sapiens
Description: Growth inhibition of human HOP92 cells assessed as cell growth at 10 uM by SRB assay

SNB-19 = experiment: cells; settings: Homo sapiens
Description: Growth inhibition of human SNB19 cells assessed as cell growth at 10 uM by SRB assay

OVCAR-8 = experiment: cells; settings: Homo sapiens
Description: Growth inhibition of human OVCAR8 cells assessed as drug level required for 50% reduction in net protein increase by SRB assay relative to control

SR [17] = experiment: cells; settings: Homo sapiens
Description: Growth inhibition of human SR cells assessed as cell growth at 10 uM by SRB assay

PC-3 [18] = experiment: cells; settings: Homo sapiens
Description: Growth inhibition of human PC3 cells assessed as drug level required for 50% reduction in net protein increase by SRB assay relative to control

MDA-MB-468 [19] = experiment: cells; settings: Homo sapiens; remark: listed apart in the source
Description: Growth inhibition of human MDA-MB-468 cells assessed as drug level required for 50% reduction in net protein increase by SRB assay relative to control

OVCAR-5 [20] = experiment: cells; settings: Homo sapiens
Description: Growth inhibition of human OVCAR5 cells assessed as drug level required for 50% reduction in net protein increase by SRB assay relative to control

COLO 205 = experiment: cells; settings: Homo sapiens
Description: Growth inhibition of human COLO205 cells assessed as cell growth at 10 uM by SRB assay

A549 [21] = experiment: cells; settings: Homo sapiens
Description: Growth inhibition of human A549 cells assessed as cell growth at 10 uM by SRB assay

SNB-75 = experiment: cells; settings: Homo sapiens
Description: Growth inhibition of human SNB75 cells assessed as drug level required for 50% reduction in net protein increase by SRB assay relative to control

HCT-116 = experiment: cells; settings: Homo sapiens
Description: Growth inhibition of human HCT116 cells assessed as cell growth at 10 uM by SRB assay

MDA-MB-231 = experiment: cells; settings: Homo sapiens
Description: Growth inhibition of human MDA-MB-231 cells assessed as drug level required for 50% reduction in net protein increase by SRB assay relative to control

NCI-H460 [22] = experiment: cells; settings: Homo sapiens
Description: Growth inhibition of human NCI-H460 cells assessed as drug level required for 50% reduction in net protein increase by SRB assay relative to control

IGROV-1 = experiment: Cytotoxicity against human IGROV1 cells by SRB assay; settings: read-out: LC50 (the source's name)
KM12 [23] = experiment: cells; settings: Homo sapiens
Description: Growth inhibition of human KM12 cells assessed as cell growth at 10 uM by SRB assay

OVCAR-3 [24] = experiment: cells; settings: Homo sapiens
Description: Growth inhibition of human OVCAR-3 cells assessed as drug level required for 50% reduction in net protein increase by SRB assay relative to control

OVCAR-3 [25] = experiment: cells; settings: Homo sapiens; remark: listed apart in the source
Description: Growth inhibition of human OVCAR-3 cells assessed as cell growth at 10 uM by SRB assay

LOX IMVI = experiment: cells; settings: Homo sapiens
Description: Growth inhibition of human LOXIMVI cells assessed as drug level required for 50% reduction in net protein increase by SRB assay relative to control

A498 = experiment: cells; settings: Homo sapiens
Description: Growth inhibition of human A498 cells assessed as drug level required for 50% reduction in net protein increase by SRB assay relative to control

RPMI-8226 = experiment: cells; settings: Homo sapiens
Description: Growth inhibition of human RPMI8226 cells assessed as drug level required for 50% reduction in net protein increase by SRB assay relative to control

MCF7 [26] = experiment: Cytotoxicity against human MCF7 cells by SRB assay; settings: read-out: LC50 (the source's name)
A549 [27] = experiment: cells; settings: Homo sapiens; remark: listed apart in the source
Description: Growth inhibition of human A549 cells assessed as drug level required for 50% reduction in net protein increase by SRB assay relative to control

HOP-62 [28] = experiment: Cytotoxicity against human HOP62 cells by SRB assay; settings: read-out: LC50 (the source's name)
PC-3 [29] = experiment: Cytotoxicity against human PC3 cells by SRB assay; settings: read-out: LC50 (the source's name)
SN12C = experiment: cells; settings: Homo sapiens
Description: Growth inhibition of human SN12C cells assessed as cell growth at 10 uM by SRB assay

786-0 = experiment: cells; settings: Homo sapiens, read-out: LC50 (the source's name)
Description: Cytotoxicity against human 786-0 cells by SRB assay

HCC 2998 [30] = experiment: Cytotoxicity against human HCC2998 cells by SRB assay; settings: read-out: LC50 (the source's name)
HL-60(TB) = experiment: cells; settings: Homo sapiens
Description: Growth inhibition of human HL-60(TB) cells assessed as cell growth at 10 uM by SRB assay

NCI-H322M = experiment: cells; settings: Homo sapiens
Description: Growth inhibition of human NCI-H322M cells assessed as drug level required for 50% reduction in net protein increase by SRB assay relative to control

UACC-257 = experiment: cells; settings: Homo sapiens
Description: Growth inhibition of human UACC257 cells assessed as drug level required for 50% reduction in net protein increase by SRB assay relative to control

SR [31] = experiment: cells; settings: Homo sapiens; remark: listed apart in the source
Description: Growth inhibition of human SR cells assessed as drug level required for 50% reduction in net protein increase by SRB assay relative to control

NCI-H460 [32] = experiment: Cytotoxicity against human NCI-H460 cells by SRB assay; settings: read-out: LC50 (the source's name)
OVCAR-5 [33] = experiment: cells; settings: Homo sapiens; remark: listed apart in the source
Description: Growth inhibition of human OVCAR5 cells assessed as cell growth at 10 uM by SRB assay

Malme-3M [34] = experiment: cells; settings: Homo sapiens; remark: listed apart in the source
Description: Growth inhibition of human MALME-3M cells assessed as drug level required for 50% reduction in net protein increase by SRB assay relative to control

T47D [35] = experiment: Cytotoxicity against human T47D cells by SRB assay; settings: read-out: LC50 (the source's name)
CCRF-CEM = experiment: cells; settings: Homo sapiens
Description: Growth inhibition of human CCRF-CEM cells assessed as drug level required for 50% reduction in net protein increase by SRB assay relative to control

SK-MEL-2 [36] = experiment: cells; settings: Homo sapiens
Description: Growth inhibition of human SK-MEL-2 cells assessed as cell growth at 10 uM by SRB assay

UO-31 [37] = experiment: cells; settings: Homo sapiens
Description: Growth inhibition of human UO31 cells assessed as cell growth at 10 uM by SRB assay

DU-145 [38] = experiment: Cytotoxicity against human DU145 cells by SRB assay; settings: read-out: LC50 (the source's name)
NCI-H460 [39] = experiment: cells; settings: Homo sapiens; remark: listed apart in the source
Description: Growth inhibition of human NCI-H460 cells assessed as cell growth at 10 uM by SRB assay

MCF7 [40] = experiment: cells; settings: Homo sapiens
Description: Growth inhibition of human MCF7 cells assessed as drug level required for 50% reduction in net protein increase by SRB assay relative to control

UO-31 [41] = experiment: cells; settings: Homo sapiens; remark: listed apart in the source
Description: Growth inhibition of human UO31 cells assessed as drug level required for 50% reduction in net protein increase by SRB assay relative to control

## CCCCCCCCCCCCCCCCCCPCCCCCCCCCCCCCC.O=S(=O)(NS(=O)(=O)C(F)(F)F)C(F)(F)F (centres undefined)
M14
  CC50: > 100000 nM
HT-29
  GI50: 53 nM
SF-268 [1]
  GI50: 72 nM
SF-539
  growth at 10 µM: 5.67%
MDA-MB-468 [2]
  growth at 10 µM: -88.3%
Cells [3]
  GI50: 236 nM
UACC-62
  growth at 10 µM: -28.1%
SF-295
  GI50: 205 nM
TK-10
  growth at 10 µM: -43.3%
RXF 393 [4]
  CC50: > 100000 nM
KM12 [5]
  CC50: > 100000 nM
SF-268 [6]
  CC50: > 100000 nM
K562
  CC50: > 100000 nM
SK-MEL-2 [7]
  CC50: > 100000 nM
HCC 2998 [8]
  growth at 10 µM: -24.4%
SK-MEL-28
  GI50: 207 nM
HOP-62 [9]
  GI50: 435 nM
SW-620
  CC50: > 100000 nM
DU-145 [10]
  growth at 10 µM: -100%
Cells [11]
  GI50: 53 nM
OVCAR-4
  GI50: 73 nM
ACHN
  growth at 10 µM: -26%
T47D [12]
  GI50: 73 nM
HCT-15
  growth at 10 µM: 7.54%
A549 [13]
  CC50: > 100000 nM
SK-OV-3
  CC50: > 100000 nM
RXF 393 [14]
  growth at 10 µM: -97.7%
[15]
  CC50: > 100000 nM
Malme-3M [16]
  growth at 10 µM: -36.5%
EKVX
  GI50: 123 nM
HOP-92
  growth at 10 µM: -67.1%
SNB-19
  growth at 10 µM: 8.99%
OVCAR-8
  GI50: 86 nM
SR [17]
  growth at 10 µM: 62.4%
PC-3 [18]
  GI50: 45 nM
MDA-MB-468 [19]
  GI50: 36 nM
OVCAR-5 [20]
  GI50: 318 nM
COLO 205
  growth at 10 µM: -65.4%
A549 [21]
  growth at 10 µM: -35%
SNB-75
  GI50: 76 nM
HCT-116
  growth at 10 µM: -70.8%
MDA-MB-231
  GI50: 56 nM
NCI-H460 [22]
  GI50: 315 nM
IGROV-1
  CC50: > 100000 nM
KM12 [23]
  growth at 10 µM: -100%
OVCAR-3 [24]
  GI50: 51 nM
OVCAR-3 [25]
  growth at 10 µM: -100%
LOX IMVI
  GI50: 58 nM
A498
  GI50: 310 nM
RPMI-8226
  GI50: 16 nM
MCF7 [26]
  CC50: > 100000 nM
A549 [27]
  GI50: 292 nM
HOP-62 [28]
  CC50: > 100000 nM
PC-3 [29]
  CC50: 5900 nM
SN12C
  growth at 10 µM: -79.1%
786-0
  CC50: > 100000 nM
HCC 2998 [30]
  CC50: > 100000 nM
HL-60(TB)
  growth at 10 µM: 43.1%
NCI-H322M
  GI50: 321 nM
UACC-257
  GI50: 103 nM
SR [31]
  GI50: 72 nM
NCI-H460 [32]
  CC50: > 100000 nM
OVCAR-5 [33]
  growth at 10 µM: -7.29%
Malme-3M [34]
  GI50: 29 nM
T47D [35]
  CC50: > 100000 nM
CCRF-CEM
  GI50: 26 nM
SK-MEL-2 [36]
  growth at 10 µM: -3.57%
UO-31 [37]
  growth at 10 µM: -36.6%
DU-145 [38]
  CC50: > 100000 nM
NCI-H460 [39]
  growth at 10 µM: -59.4%
MCF7 [40]
  GI50: 144 nM
UO-31 [41]
  GI50: 350 nM

## CCCCCCCC[N+](C)(CCCCCCCC)CCCCCCCC.O=S(=O)([N-]S(=O)(=O)C(F)(F)F)C(F)(F)F
M14
  CC50: 9190 nM
HT-29
  GI50: 305 nM
SF-268 [1]
  GI50: 493 nM
SF-539
  growth at 10 µM: -100%
MDA-MB-468 [2]
  growth at 10 µM: -90.1%
Cells [3]
  GI50: 84 nM
UACC-62
  growth at 10 µM: -94.5%
SF-295
  GI50: 333 nM
TK-10
  growth at 10 µM: -100%
RXF 393 [4]
  CC50: 5750 nM
KM12 [5]
  CC50: 5310 nM
SF-268 [6]
  CC50: 5500 nM
K562
  CC50: 4860 nM
SK-MEL-2 [7]
  CC50: > 100000 nM
HCC 2998 [8]
  growth at 10 µM: -98%
SK-MEL-28
  GI50: 710 nM
HOP-62 [9]
  GI50: 787 nM
SW-620
  CC50: 10000 nM
DU-145 [10]
  growth at 10 µM: -100%
Cells [11]
  GI50: 417 nM
OVCAR-4
  GI50: 309 nM
ACHN
  growth at 10 µM: -93.6%
T47D [12]
  GI50: 428 nM
HCT-15
  growth at 10 µM: -75%
A549 [13]
  CC50: 8580 nM
SK-OV-3
  CC50: 5120 nM
RXF 393 [14]
  growth at 10 µM: -100%
[15]
  CC50: 3280 nM
Malme-3M [16]
  growth at 10 µM: -94.1%
EKVX
  GI50: 215 nM
HOP-92
  growth at 10 µM: -70%
SNB-19
  growth at 10 µM: -89.6%
OVCAR-8
  GI50: 468 nM
SR [17]
  growth at 10 µM: 28.1%
PC-3 [18]
  GI50: 282 nM
MDA-MB-468 [19]
  GI50: 119 nM
OVCAR-5 [20]
  GI50: 1240 nM
COLO 205
  growth at 10 µM: -60.6%
A549 [21]
  growth at 10 µM: -100%
SNB-75
  GI50: 336 nM
HCT-116
  growth at 10 µM: -100%
MDA-MB-231
  GI50: 345 nM
NCI-H460 [22]
  GI50: 362 nM
IGROV-1
  CC50: > 100000 nM
KM12 [23]
  growth at 10 µM: -100%
OVCAR-3 [24]
  GI50: 315 nM
OVCAR-3 [25]
  growth at 10 µM: -100%
LOX IMVI
  GI50: 192 nM
A498
  GI50: 1820 nM
RPMI-8226
  GI50: 46 nM
MCF7 [26]
  CC50: 4020 nM
A549 [27]
  GI50: 1900 nM
HOP-62 [28]
  CC50: 7770 nM
PC-3 [29]
  CC50: 3990 nM
SN12C
  growth at 10 µM: -86.5%
786-0
  CC50: 5020 nM
HCC 2998 [30]
  CC50: 6960 nM
HL-60(TB)
  growth at 10 µM: 32%
NCI-H322M
  GI50: 1810 nM
UACC-257
  GI50: 411 nM
SR [31]
  GI50: 162 nM
NCI-H460 [32]
  CC50: 4100 nM
OVCAR-5 [33]
  growth at 10 µM: -100%
Malme-3M [34]
  GI50: 290 nM
T47D [35]
  CC50: > 100000 nM
CCRF-CEM
  GI50: 190 nM
SK-MEL-2 [36]
  growth at 10 µM: -94.1%
UO-31 [37]
  growth at 10 µM: -100%
DU-145 [38]
  CC50: 4440 nM
NCI-H460 [39]
  growth at 10 µM: -100%
MCF7 [40]
  GI50: 317 nM
UO-31 [41]
  GI50: 686 nM
